Where a name gives a salt, the structure may show the parent alone.
Key:
[1] = Physicochemical properties of the drug substance
Excerpt: However, the compound of formula (I), or a pharmaceutically acceptable salt thereof, in particular the sodium salt thereof, is a drug substance which is difficult to formulate due to its physicochemical properties. […] It is also plate like, very fluffy, and sticky in nature.

[2] = Disintegrant compatibility / stress storage; type: physicochemical; settings: due to the presence of residual formaldehyde
Experimental: It can be seen from the above table that core tablets formulated with Cross linked polyvinyl pyrollidone (PVP-XL) show a slower release compared to the Sodium Starch Glycollate (SSG), and Croscarmellose Sodium (Ac-Di-Sol) based formulations. […] Formulations containing Croscarmellose Sodium (Ac-Di-Sol) were also found to turn to yellow when prepared and exposed to 50° C. dry as well as 50° C./75% […] humidity for 4 weeks.

moisture uptake ([1]; at 95% relative humidity): high moisture uptake
hygroscopicity ([1]; drug substance, sodium salt): hygroscopic
solubility ([1]; drug substance, sodium salt): poorly soluble
compatibility with Cross linked polyvinyl pyrollidone (PVP-XL) [2]: incompatible
SMILES: O=C(O)C[C@H]1CC[C@H](c2ccc(-c3ccc(Nc4ccc(C(F)(F)F)nc4)cn3)cc2)CC1 [compound of formula (II), trans-(4-{4-[5-(6-Trifluoromethyl-pyridin-3-ylamino)-pyridin-2-yl]-phenyl}-cyclohexyl)-acetic acid, sodium salt]

Reference: patent US11304907B2, “Pharmaceutical compositions containing a DGAT1 inhibitor” (Novartis AG, priority 2010, dated 2022)
